Experimental data reported in ChEMBL document CHEMBL1201862, “PubChem BioAssay data set” (2004).
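Values below derive from 48-hour exposures of cells grown in 96-well plates, with endpoints linearly interpolated between the two concentrations bracketing the appropriate inhibition level. The concentration for 50% growth inhibition is given as GI50.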 Activity calls are given as the source filed them. Rule as the data show it: active = GI50 up to about 1.1 µM and inactive = higher.

Tests used:
Test in all cases: inhibition of tumour cell growth, NCI panel, 48 h
A549 = test system: A549
SNB-75 = test system: SNB-75
M14 = test system: M14
SW-620 = test system: SW-620
NCI-H226 = test system: NCI-H226
NCI-H522 = test system: NCI-H522
A498 = test system: A498
SF-539 = test system: SF-539
HL-60 = test system: HL-60
MOLT-4 = test system: MOLT-4
786-0 = test system: 786-0
OVCAR-5 = test system: OVCAR-5
OVCAR-8 = test system: OVCAR-8
TK-10 = test system: TK-10
CCRF-CEM = test system: CCRF-CEM
HOP-92 = test system: HOP-92
OVCAR-4 = test system: OVCAR-4
SF-295 = test system: SF-295

Measured: GI50

CC1CC2=Nc3ccccc3NC(c3ccccc3)C2=C(O)O1 (stereo not given)
inactive: A549 > 100 µM | SNB-75 > 100 µM | M14 > 100 µM | SW-620 > 100 µM | NCI-H226 > 100 µM | NCI-H522 47.1 µM | A498 > 100 µM | SF-539 > 100 µM | HL-60 > 100 µM | MOLT-4 > 100 µM | 786-0 > 100 µM | OVCAR-5 > 100 µM | OVCAR-8 > 100 µM | TK-10 > 100 µM | CCRF-CEM > 100 µM

CSc1nc(NC(=O)O)c(N(C(C)=O)C(=O)O)c(=O)n1C
inactive: A549 > 100 µM | M14 > 100 µM | SW-620 > 100 µM | NCI-H226 > 100 µM | HOP-92 > 100 µM | A498 > 100 µM | SF-539 > 100 µM | OVCAR-4 > 100 µM | SF-295 > 100 µM | HL-60 > 100 µM | MOLT-4 > 100 µM | 786-0 > 100 µM | OVCAR-5 > 100 µM | OVCAR-8 > 100 µM | CCRF-CEM > 100 µM

CN(CCO)c1nc(=O)c2c([nH]1)CCC2
inactive: A549 > 100 µM | SNB-75 43.9 µM | M14 > 100 µM | SW-620 > 100 µM | NCI-H226 > 100 µM | HOP-92 > 100 µM | NCI-H522 > 100 µM | SF-539 > 100 µM | OVCAR-4 > 100 µM | SF-295 > 100 µM | HL-60 > 100 µM | MOLT-4 > 100 µM | 786-0 > 100 µM | OVCAR-5 > 100 µM | OVCAR-8 > 100 µM | TK-10 > 100 µM | CCRF-CEM > 100 µM

CN1C(=O)NC2(O)c3ccccc3C(=O)C12O (stereo not given)
inactive: A549 > 100 µM | SNB-75 > 100 µM | M14 > 100 µM | SW-620 > 100 µM | HOP-92 > 100 µM | NCI-H522 > 100 µM | OVCAR-4 > 100 µM | SF-295 > 100 µM | HL-60 > 100 µM | MOLT-4 > 100 µM | 786-0 > 100 µM | OVCAR-5 > 100 µM | OVCAR-8 > 100 µM | TK-10 > 100 µM | CCRF-CEM > 100 µM

COC1=CC(=O)c2ccccc2C1(CCC=C(C)C)C1=NC(C)(C)CO1 (stereo not given)
inactive: A549 51.6 µM | SNB-75 > 100 µM | M14 > 100 µM | SW-620 > 100 µM | NCI-H226 > 100 µM | HOP-92 99.3 µM | NCI-H522 42.4 µM | SF-539 > 100 µM | OVCAR-4 71.9 µM | SF-295 55.5 µM | HL-60 23.7 µM | MOLT-4 31.7 µM | 786-0 > 100 µM | OVCAR-8 70.8 µM | TK-10 > 100 µM | CCRF-CEM 28.6 µM

CCC1=CCN(c2cc(C)ccn2)OC1c1ccc(OC)cc1 (stereo not given)
inactive: A549 35.2 µM | SNB-75 33.7 µM | M14 32.5 µM | SW-620 38.1 µM | NCI-H226 38.3 µM | NCI-H522 16 µM | SF-539 > 10 µM | OVCAR-4 34.8 µM | SF-295 22.2 µM | HL-60 22.5 µM | MOLT-4 26.9 µM | 786-0 34.8 µM | OVCAR-5 26.5 µM | OVCAR-8 32.8 µM | CCRF-CEM 23.7 µM

COC(=O)/C(C#N)=C1\CCC(O)N1C (stereo not given)
inactive: A549 > 100 µM | SNB-75 > 100 µM | M14 > 100 µM | SW-620 > 100 µM | NCI-H226 > 100 µM | NCI-H522 > 100 µM | SF-539 > 100 µM | OVCAR-4 > 100 µM | SF-295 > 100 µM | HL-60 > 100 µM | MOLT-4 > 100 µM | 786-0 > 100 µM | OVCAR-5 > 100 µM | OVCAR-8 > 100 µM | TK-10 > 100 µM | CCRF-CEM > 100 µM

CC1Cc2c(N)nc(N3CCOCC3)nc2NC1=O (stereo not given)
inactive: A549 > 100 µM | SNB-75 5.53 µM | M14 > 100 µM | SW-620 > 100 µM | NCI-H226 > 100 µM | NCI-H522 > 100 µM | SF-539 > 100 µM | SF-295 > 100 µM | HL-60 > 100 µM | MOLT-4 > 100 µM | 786-0 > 100 µM | OVCAR-8 > 100 µM | TK-10 > 100 µM | CCRF-CEM > 100 µM

COc1ccc(NC(=O)CC(=O)n2nc(C)c(/N=N/c3ccccc3C(=O)O)c2C)cc1
inactive: A549 > 100 µM | SNB-75 33 µM | M14 > 100 µM | SW-620 > 100 µM | NCI-H522 > 100 µM | A498 > 100 µM | SF-539 > 100 µM | OVCAR-4 > 100 µM | SF-295 > 100 µM | HL-60 > 100 µM | MOLT-4 > 100 µM | 786-0 77.3 µM | OVCAR-5 > 100 µM | OVCAR-8 > 100 µM | TK-10 > 100 µM | CCRF-CEM > 100 µM

C=C/C=C/NC(=O)OCc1ccccc1
inactive: A549 > 100 µM | SNB-75 > 100 µM | M14 > 100 µM | SW-620 > 100 µM | HOP-92 > 100 µM | NCI-H522 > 100 µM | OVCAR-4 > 100 µM | SF-295 > 100 µM | HL-60 > 100 µM | MOLT-4 > 100 µM | 786-0 > 100 µM | OVCAR-5 > 100 µM | OVCAR-8 > 100 µM | TK-10 > 100 µM | CCRF-CEM > 100 µM

Cc1ccc2c(c1)C1(OC(=O)c3ccccc31)c1ccc(F)cc1O2 (stereo not given)
inactive: A549 48.9 µM | M14 28.6 µM | SW-620 34.6 µM | NCI-H226 18.7 µM | HOP-92 16.1 µM | NCI-H522 23.9 µM | OVCAR-4 49.8 µM | HL-60 21.7 µM | MOLT-4 20.3 µM | 786-0 77.6 µM | OVCAR-5 > 100 µM | OVCAR-8 > 100 µM | TK-10 > 100 µM | CCRF-CEM 31.8 µM

CC(=O)NC1=C(NCC(C)(C)C)C(=O)c2ccccc2C1=O
inactive: A549 > 100 µM | SNB-75 96.6 µM | M14 > 100 µM | SW-620 66.5 µM | NCI-H226 > 100 µM | NCI-H522 18.9 µM | SF-539 32.9 µM | OVCAR-4 > 100 µM | SF-295 > 100 µM | HL-60 32.1 µM | MOLT-4 57.3 µM | 786-0 > 100 µM | OVCAR-8 70.6 µM | TK-10 > 100 µM | CCRF-CEM 38.5 µM

CC(C)(C)C1=NO[C@H]2[C@@H](NC(=O)c3ccccc3)CC[C@@H]12
inactive: A549 > 100 µM | SNB-75 38.3 µM | M14 > 100 µM | SW-620 > 100 µM | NCI-H226 > 100 µM | HOP-92 98.2 µM | NCI-H522 > 100 µM | SF-539 > 100 µM | OVCAR-4 > 100 µM | SF-295 > 100 µM | HL-60 > 100 µM | MOLT-4 > 100 µM | 786-0 > 100 µM | OVCAR-5 > 100 µM | OVCAR-8 > 100 µM | TK-10 > 100 µM | CCRF-CEM > 100 µM

CC(=O)OC(C)(C)C[N+](=O)[O-]
inactive: A549 > 100 µM | SNB-75 > 100 µM | M14 > 100 µM | SW-620 > 100 µM | NCI-H226 > 100 µM | HOP-92 > 100 µM | NCI-H522 63.4 µM | SF-539 > 100 µM | OVCAR-4 20 µM | SF-295 > 100 µM | HL-60 26 µM | MOLT-4 > 100 µM | 786-0 > 100 µM | OVCAR-5 > 100 µM | OVCAR-8 > 100 µM | TK-10 > 100 µM | CCRF-CEM > 100 µM

Cc1ccc(C2=C(c3ccccc3)C(Br)(c3ccc(C)cc3)C(c3ccccc3)=C2c2ccc(C)cc2)cc1
inactive: A549 > 100 µM | M14 > 100 µM | SW-620 > 100 µM | HOP-92 > 100 µM | A498 > 100 µM | SF-539 > 100 µM | OVCAR-4 > 100 µM | SF-295 > 100 µM | HL-60 > 100 µM | MOLT-4 > 100 µM | 786-0 > 100 µM | OVCAR-5 > 100 µM | OVCAR-8 > 100 µM | TK-10 > 100 µM | CCRF-CEM > 100 µM

COC(=O)C1=C2CCC(=O)[C@@]2(C)C(OC(C)=O)C=CC1 (stereo not given in full)
inactive: A549 > 100 µM | SNB-75 56.8 µM | M14 88.9 µM | SW-620 36.4 µM | NCI-H226 > 100 µM | A498 > 100 µM | SF-539 49.3 µM | OVCAR-4 > 100 µM | SF-295 37.1 µM | HL-60 29.5 µM | MOLT-4 35.9 µM | 786-0 > 100 µM | OVCAR-5 > 100 µM | OVCAR-8 43 µM | TK-10 > 100 µM | CCRF-CEM 22.9 µM

Cn1cnc([N+](=O)[O-])c1Sc1nc2cc([N+](=O)[O-])ccc2[nH]1
inactive: A549 29.3 µM | SNB-75 26.2 µM | M14 34.4 µM | SW-620 27.9 µM | NCI-H226 40.2 µM | HOP-92 17.3 µM | A498 29.6 µM | SF-539 19.1 µM | OVCAR-4 46.6 µM | SF-295 > 100 µM | HL-60 14 µM | MOLT-4 14.8 µM | 786-0 42.4 µM | OVCAR-5 48.4 µM | OVCAR-8 14.7 µM | TK-10 19.5 µM | CCRF-CEM 15.4 µM
